According to the OPERA property sets (Mansouri et al. 2018):

logP	SMILES
0.3	CCCOCc1cc(=O)c(O)co1
0.78	CCCCOCc1cc(=O)c(O)co1
-0.38	CCOCc1cc(=O)c(O)co1
-0.62	COCc1cc(=O)c(O)co1
-0.59	Cc1cc(=O)c(O)co1

Continued, compound first:

SMILES	logP
CCc1occc(=O)c1O	0.63
Cc1cc(=O)c(O)c(C)o1	0.44
NCCn1ccc(=O)c(O)c1	-0.66
O=c1ccocc1O	-0.92
CCc1oc(C)cc(=O)c1O	1.07
CCn1cccc(O)c1=O	0.2
CCCn1cccc(O)c1=O	0.69
